Data published in patent EP0070171A1, “Novel piperidine derivatives, processes for preparation thereof and pharmaceutical compositions containing same” (KYOWA HAKKO KOGYO CO., LTD, priority 1981, dated 1983).

Legend:
[1] = test system: spontaneously hypertensive rats; test: Hypotensive activity in spontaneously hypertensive rats (Experiment 1, tail artery plethysmography); type: in vivo; details: maximum reduction after administration versus pressure before administration; oral, 3 mg/100 g body weight, suspended in 0.3% (W/V) CMC; SHR 15 weeks old, five rats per group
Protocol: This experiment was conducted according to the procedure described in "Spontaneously Hypertensive Rats (SHR) guidelines for Breeding, Care and Use" (published by SHR Conference) (1976) p.ll.
Five spontaneously hypertensive rats (15 weeks old, 180 mmHg or more in blood pressure) were used as one group. A test compound was suspended in 0.3% (W/V) CMC aqueous solution in a concentration of 3 mg/ml, and orally administered to the rats in a dose of 3 mg/100 g body weight. Changes in blood pressure were measured according to the method of tail artery plethysmography (see the literature cited above). The maximum reduction (mmHg) in blood pressure after the administration on the basis of the pressure before the administration is shown in Table 6.

[2] = Acute oral toxicity in mice (Experiment 2, deaths counted after 7 days); details: mouse, in vivo, in aqueous physiological sodium chloride, doses 300 mg/kg or further 200, 100 or 1000 mg/kg, observation for 7 days, three or four mice per group, read-out: Dose of half being died
Protocol: Three or four male dd-strain mice (weight 18-20g) were used as one group.
Each of the compounds was added to aqueous physiological sodium chloride, and the mixture was orally administered to the mice in a dose of 300 mg/kg or further 200, 100 or 1000 mg/kg. After the observation for 7 days, the number of deaths were counted.

Row | SMILES | Reduction in blood pressure (mmHg) [1] [mmHg] | LD50 at 168 h [2] [mg/kg]
1 | COc1ccc([C@H](O)[C@H](C)N2CCC3(CC2)OC(=O)Nc2ccccc23)cc1OC (relative stereo) [Compound 25, threo-l'-[2-(3,4-dimethoxyphenyl)-2-hydroxy-1-methylethyl]-(2-oxo-3,4-dihydro-2H-1,3-benzoxazine-4-spiro-4'-piperidine)] | 90 | –
2 | COc1ccc([C@@H](O)[C@H](C)N2CCC3(CC2)OC(=O)Nc2ccccc23)cc1OC (relative stereo) [Compound 26, erythro-l'-[2-(3,4-dimethoxyphenyl)-2-hydroxy-1-methylethyl]-(2-oxo-3,4-dihydro-2H-1,3-benzo-xazine-4-spiro-4'-piperidine)] | 66 | –
3 | COc1cc([C@H](O)[C@H](C)N2CCC3(CC2)OC(=O)Nc2ccccc23)cc(OC)c1OC (relative stereo) [Compound 28] | 70 | –
4 | COc1cc(OC)c([C@@H](O)[C@H](C)N2CCC3(CC2)OC(=O)Nc2ccccc23)cc1OC (relative stereo) [Compound 31, erythro-l'-[2-(3,4,6-trimethoxyphenyl)-2-hydroxy-1-methylethyl]-(2-oxo-3,4-dihydro-2H-1,3-benzo-xazine-4-spiro-4'-piperidine)] | 75 | –
5 | O=C1Nc2ccccc2C2(CCN(CC(O)c3ccccc3)CC2)O1 (stereo not shown) [Compound 2, l'-(2-phenyl-2-hydroxyethyl)-(2-oxo-3,4-dihydro-2H-1,3-benzoxazine-4-spiro-4'-piperidine)] | 46.3 | > 300
6 | COc1ccc(C(O)CN2CCC3(CC2)OC(=O)Nc2ccccc23)cc1OC (stereo not shown) [Compound 4, l'-[2-(3,4-dimethoxyphenyl)-2-hydroxyethyl]-(2-oxo-3,4-dihydro-2H-1,3-benzoxazine-4-spiro-4'-piperidine)] | 95.0 | > 1000
7 | O=C1Nc2ccc(Cl)cc2C2(CCN(CC(O)c3ccccc3)CC2)O1 (stereo not shown) [Compound 6, l'-(2-phenyl-2-hydroxyethyl)-(6-chloro-2-oxo-3,4-dihydro-2H-1,3-benzoxazine-4-spiro-4'-piperidine)] | 66.3 | –
8 | O=C1Nc2ccc(Cl)cc2C2(CCN(CC(O)c3ccc(Cl)cc3)CC2)O1 (stereo not shown) [Compound 8, l'-[2-(4-chlorophenyl)-2-hydroxyethyl]-(6-chloro-2-oxo-3,4-dihydro-2H-1,3-benzoxazine-4-spiro-4'-piperidine)] | 67.5 | > 300
9 | O=C1Nc2ccccc2C2(CCN(CC(O)c3ccc(Cl)cc3)CC2)O1 (stereo not shown) [Compound 9] | 43.7 | > 300
10 | CN1C(=O)Nc2ccccc2C12CCN(CC(O)c1ccc(Cl)cc1)CC2 (stereo not shown) [Compound 10] | 20.0 | –
11 | CN1C(=O)Nc2ccccc2C12CCN(CC(O)c1ccccc1)CC2 (stereo not shown) [Compound 11, l'-(2-phenyl-2-hydroxyethyl)-(3-methyl-3,4-dihydro-2(lH)-quinazolinone-4-spiro-4'-piperidine)] | 47.5 | 200
12 | COc1ccc(C(O)CN2CCC3(CC2)c2ccccc2NC(=O)N3C)cc1OC (stereo not shown) [Compound 12, l'-[2-(3,4-dimethoxyphenyl)-2-hydroxyethyl]-[3-methyl-3,4-dihydro-2(1H)-quinazolinone-4-spiro-4'-piperidine]] | 35.0 | 100 to 300
13 | COc1cc(C(O)CN2CCC3(CC2)OC(=O)Nc2ccccc23)cc(OC)c1OC (stereo not shown) [Compound 32, l'-[2-(3,4,5-trimethoxyphenyl)-2-hydroxyethyl]-(2-oxo-3,4-dihydro-2H-1,3-benzoxazine-4-spiro-4'-piperidine)] | 79 | –
